Reference: US10670605B2, “Cysteine reactive probes and uses thereof” (The Scripps Research Institute, priority 2015, dated 2020)
Counter-ions that a name gives are not always drawn. One block for each compound: values may come before it.

How the values were obtained:
Type in all cases: cell-based
PKCθ-CD28 interaction = biological target: T1, PKCθ-CD28 interaction (Mus musculus, UniProt Q02111); experiment: PKCθ immunoprecipitation with CD28 and immunoblot; details: 50 μM, mouse T cells
T1 construct: endogenous in cells; host or cells: peripheral CD4+ T cells from C57BL/6 mice
T1 sequence (Q02111 whole entry): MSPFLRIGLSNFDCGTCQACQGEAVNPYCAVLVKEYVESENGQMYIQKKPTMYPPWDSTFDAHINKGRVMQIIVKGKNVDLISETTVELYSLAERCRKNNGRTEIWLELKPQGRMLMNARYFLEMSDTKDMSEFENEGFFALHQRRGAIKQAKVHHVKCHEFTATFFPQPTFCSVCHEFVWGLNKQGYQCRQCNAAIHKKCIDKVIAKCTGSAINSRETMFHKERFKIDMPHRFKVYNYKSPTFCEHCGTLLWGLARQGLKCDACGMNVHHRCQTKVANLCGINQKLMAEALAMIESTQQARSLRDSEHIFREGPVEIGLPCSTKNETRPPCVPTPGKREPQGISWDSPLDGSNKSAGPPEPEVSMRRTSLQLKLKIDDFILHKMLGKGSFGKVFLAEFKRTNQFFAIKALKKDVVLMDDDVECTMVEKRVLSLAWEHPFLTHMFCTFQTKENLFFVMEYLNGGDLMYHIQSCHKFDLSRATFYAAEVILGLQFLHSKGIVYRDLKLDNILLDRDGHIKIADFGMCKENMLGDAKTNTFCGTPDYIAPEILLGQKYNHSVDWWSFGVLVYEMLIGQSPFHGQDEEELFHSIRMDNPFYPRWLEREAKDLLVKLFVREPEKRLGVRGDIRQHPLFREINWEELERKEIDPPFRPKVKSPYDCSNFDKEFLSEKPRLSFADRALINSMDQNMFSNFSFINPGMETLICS
Text: FIG. 32A-FIG. 32G exemplify DMF-sensitive C14/C17 residues in PKCθ are important for CD28 interactions and T cell activation. FIG. 32A illustrates representative MS1 profiles for DMF-sensitive (C14/C17) and -insensitive (C322) Cys residues in PKCθ. FIG. 32B exemplifies sequence conservation analysis of human and mouse PKCθ, human PKCδ, and human PKCε (SEQ ID NOS 865-868, respectively, in order of appearance). Shown in red are C14 and C17. FIG. 32C illustrates location of DMF-sensitive C14 and C17 residues in the C2 domain of PKCθ (PDB accession number 2ENJ). […] Immunoprecipitations (IPs) were performed in the cell lysates with anti-CD28 or control IgG antibodies and IPs blotted for CD28 or PKCθ. FIG. 32E illustrates Co-IP of WT PKCθ and the C14S/C17S (2CS) PKCθ mutant with CD28. PKCθ(−/−) T cells were reconstituted with empty vector (EV), WT PKCθ, or the 2CS PKCθ mutant. FIG. 32F and FIG. 32 G illustrate PKCθ(−/−) T cells reconstituted with WT or 2CS PKCθ were assayed for activation potential by measuring CD25 expression (FIG. 32F) and IL-2 (FIG. 32G). For FIG. 32E-FIG. 32G, PKCθ(−/−) T cell cultures were pre-activated with plate-coated anti-CD3+anti-CD28 for 24 h before retroviral transduction with empty vector, WT PKCθ, or the 2CS PKCθ mutant. […]

USP48 C39 (Q86UV5) = biological target: T2, USP48 C39 (Q86UV5) (Homo sapiens, UniProt Q86UV5); experiment: Competitive isoTOP-ABPP in situ; details: fragment 2 at 200 μM, MDA-MB-231 cells
T2 sequence (Q86UV5 1-1035): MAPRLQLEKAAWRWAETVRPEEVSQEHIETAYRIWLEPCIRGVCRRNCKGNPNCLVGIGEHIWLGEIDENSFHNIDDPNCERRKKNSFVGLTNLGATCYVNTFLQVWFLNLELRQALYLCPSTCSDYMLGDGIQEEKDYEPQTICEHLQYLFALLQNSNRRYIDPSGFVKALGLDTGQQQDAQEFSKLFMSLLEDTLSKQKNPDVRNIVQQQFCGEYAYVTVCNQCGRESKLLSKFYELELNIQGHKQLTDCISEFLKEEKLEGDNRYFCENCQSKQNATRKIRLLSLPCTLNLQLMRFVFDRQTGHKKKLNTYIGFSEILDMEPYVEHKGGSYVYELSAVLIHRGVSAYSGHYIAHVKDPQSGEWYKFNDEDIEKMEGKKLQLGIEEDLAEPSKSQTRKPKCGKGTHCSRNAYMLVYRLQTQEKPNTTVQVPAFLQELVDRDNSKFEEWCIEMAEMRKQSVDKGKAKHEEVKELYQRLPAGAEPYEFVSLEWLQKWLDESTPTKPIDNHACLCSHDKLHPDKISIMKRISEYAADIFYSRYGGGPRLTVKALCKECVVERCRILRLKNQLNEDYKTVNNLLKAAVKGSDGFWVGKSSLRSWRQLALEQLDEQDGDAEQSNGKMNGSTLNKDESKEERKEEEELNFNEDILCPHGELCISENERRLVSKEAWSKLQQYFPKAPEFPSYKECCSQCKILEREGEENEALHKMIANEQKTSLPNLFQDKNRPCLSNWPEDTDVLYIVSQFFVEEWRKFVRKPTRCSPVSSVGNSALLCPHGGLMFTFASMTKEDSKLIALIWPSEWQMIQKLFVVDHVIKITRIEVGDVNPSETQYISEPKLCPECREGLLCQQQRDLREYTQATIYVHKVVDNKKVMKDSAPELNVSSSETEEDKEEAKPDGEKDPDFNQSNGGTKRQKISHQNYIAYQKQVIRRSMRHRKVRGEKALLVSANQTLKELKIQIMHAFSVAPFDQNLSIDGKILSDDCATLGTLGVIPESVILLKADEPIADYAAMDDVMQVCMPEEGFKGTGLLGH

CDKN3 C39 (Q16667) = CDKN3 C39 (Q16667) (Homo sapiens, UniProt Q16667); experiment: Competitive isoTOP-ABPP in situ; details: fragment 4 at 100 μM, MDA-MB-231 cells
Sequence of CDKN3 C39 (Q16667) (Q16667 whole entry, the tested form may be a part): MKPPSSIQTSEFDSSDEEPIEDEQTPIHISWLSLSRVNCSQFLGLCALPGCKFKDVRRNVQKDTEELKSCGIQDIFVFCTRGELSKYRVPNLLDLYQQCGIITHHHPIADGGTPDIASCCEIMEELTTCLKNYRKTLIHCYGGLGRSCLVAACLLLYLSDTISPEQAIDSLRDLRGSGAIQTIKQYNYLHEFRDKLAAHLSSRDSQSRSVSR

RAI14 C973 (Q9P0K7) = RAI14 C973 (Q9P0K7) (Homo sapiens, UniProt Q9P0K7); experiment: Competitive isoTOP-ABPP in situ; details: fragment 4 at 100 μM, MDA-MB-231 cells
Sequence of RAI14 C973 (Q9P0K7) (Q9P0K7 whole entry, the tested form may be a part): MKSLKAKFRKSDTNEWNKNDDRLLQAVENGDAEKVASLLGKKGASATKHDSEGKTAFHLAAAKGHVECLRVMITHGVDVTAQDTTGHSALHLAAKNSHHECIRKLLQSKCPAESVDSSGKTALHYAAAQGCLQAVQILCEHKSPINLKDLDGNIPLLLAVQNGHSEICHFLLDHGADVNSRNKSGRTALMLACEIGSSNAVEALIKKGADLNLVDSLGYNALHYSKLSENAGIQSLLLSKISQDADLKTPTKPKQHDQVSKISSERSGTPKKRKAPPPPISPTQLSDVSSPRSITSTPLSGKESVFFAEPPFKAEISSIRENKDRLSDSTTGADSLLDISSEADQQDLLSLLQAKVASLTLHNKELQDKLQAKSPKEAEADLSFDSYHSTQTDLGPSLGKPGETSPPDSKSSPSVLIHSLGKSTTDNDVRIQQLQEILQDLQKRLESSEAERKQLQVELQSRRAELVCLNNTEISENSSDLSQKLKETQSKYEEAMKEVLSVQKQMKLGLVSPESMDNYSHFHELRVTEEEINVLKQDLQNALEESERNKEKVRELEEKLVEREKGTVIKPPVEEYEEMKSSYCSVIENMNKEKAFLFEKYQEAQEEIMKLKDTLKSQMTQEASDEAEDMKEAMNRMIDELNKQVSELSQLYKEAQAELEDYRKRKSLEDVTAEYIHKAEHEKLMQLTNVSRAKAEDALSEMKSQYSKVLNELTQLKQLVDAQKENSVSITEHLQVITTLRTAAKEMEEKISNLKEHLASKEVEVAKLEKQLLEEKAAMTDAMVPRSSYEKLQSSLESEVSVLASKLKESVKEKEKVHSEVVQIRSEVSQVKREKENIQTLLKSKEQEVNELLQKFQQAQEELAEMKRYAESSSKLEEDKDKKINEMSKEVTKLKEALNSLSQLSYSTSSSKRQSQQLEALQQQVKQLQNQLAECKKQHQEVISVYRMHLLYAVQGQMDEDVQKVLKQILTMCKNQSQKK

Compound: COC(=O)/C=C/C(=O)OC [DMF, dimethyl fumarate]
- interaction between PKCθ and CD28 (PKCθ-CD28 interaction): blocked

- isoTOP-ABPP reactivity profile (ratio) 2_200 μM_in-situ_231 (USP48 C39 (Q86UV5)): 20.0
Compound: COc1ccc2c(c1)CCCN2C(=O)CCl [compound 2]

- isoTOP-ABPP reactivity profile (ratio) 4_100 μM_in-situ_231 (CDKN3 C39 (Q16667)): 0.6
- isoTOP-ABPP reactivity profile (ratio) 4_100 μM_in-situ_231 (RAI14 C973 (Q9P0K7)): 8.7
Compound: COc1ccc(C2CC(c3cccs3)=NN2C(=O)CCl)cc1 (stereo not shown) [compound 4]
